According to patent US20250367226A1, “ANTI-MALASSEZIA AGENT” (N.T.H Co., Ltd., priority 2024, published 2025):
Where a name gives a salt, the structure may show the parent alone.

System: Malassezia globosa
Assay: Anti-Malassezia test (viability of Malassezia, WST microbial viability assay)
Details: for concentration required to inhibit the viability of Malassezia by 20%: 20% inhibition of viability; for viability at 10 µM / viability at 1 µM / viability at 100 µM: Malassezia globosa, 22 h, read-out: viability (%) of Malassezia, relative to negative control taken as 100; for anti-Malassezia effect compared with the positive control drugs: versus streptomycin sulfate, amorolfine hydrochloride, itraconazole
Experimental: The Malassezia strain was cultured in CHROMagar Malassezia/Candida prepared medium (Kanto Chemical Co., Ltd.).
In 1 L of distilled water were dissolved 10 g of D-glucose, 5 g of peptone, 3 g of yeast extract, 3 g of malt extract and 0.1 g of penicillin. The resulting solution was filtered and used for the experiments.
A suspension of Malassezia was prepared to an optical density equivalent to McFarland's Standard No. 3 and 0.5 mL of the suspension was added to tubes. Each of the prepared samples, oleic acid and the YM medium were mixed into the tubes, and Malassezia was cultured at 37° C. for 22 hours. The fungi were stained using Microbial viability assay kit-WST (Dojindo Laboratories) and cultured at 37° C. for 2 hours. The absorbance was measured to calculate the viability of Malassezia. The results are expressed as a percentage (%) relative to a negative control (“control”: with no addition of test substances) taken as 100. A lower percentage indicates a stronger anti-Malassezia effect. The values obtained in the experiments were expressed as the mean±S.E. The significance of the difference in the means between the test substance administration groups and the negative control group was tested by the Dunnett's test. The significance level was set at 5% or 1%.

Structure (SMILES) | concentration required to inhibit the viability of Malassezia by 20% | viability at 10 µM | viability at 1 µM | viability at 100 µM | anti-Malassezia effect compared with the positive control drugs
[H]/N=C(/N)N[C@H]1[C@H](O)[C@@H](O)[C@H](O[C@@H]2O[C@@H](C)[C@](O)(C=O)[C@H]2O[C@@H]2O[C@@H](CO)[C@H](O)[C@@H](O)[C@@H]2NC)[C@@H](N/C(N)=N\[H])[C@@H]1O [streptomycin sulfate, reference compound] | ≥ 137 µM | 106% | – | – | –
C[C@@H]1O[C@@H](OC[C@H]2O[C@@H](Oc3cc(O)c4c(=O)cc(-c5ccc(O)cc5)oc4c3)[C@H](O)[C@@H](O)[C@@H]2O)[C@H](O)[C@H](O)[C@H]1O [Compound 2, apigenin 7-O-α-L-rhamnopyranosyl-(1→6)-β-D-glucopyranoside] | – | 81.4% | 83.6% | 61.5% | comparable to or higher than that of the positive control drugs
CCC(C)n1ncn(-c2ccc(N3CCN(c4ccc(OCC5COC(Cn6cncn6)(c6ccc(Cl)cc6Cl)O5)cc4)CC3)cc2)c1=O (centres unmarked) [Itraconazole, itraconazole, reference compound] | about 10 μM | – | – | – | –
CC(=O)c1c(O)cc(O[C@@H]2OC(CO)[C@@H](O)C(O)C2O)c(O[C@@H]2OC(CO)[C@@H](O)C(O)C2O)c1O (some centres unmarked) [Compound 1, inermioside A] | – | 81.3% | 93.6% | 76.3% | comparable to or higher than that of the positive control drugs
